{"source": "patent US20240277658A1", "about": "“NLRP3 ACTIVATORS FOR USE IN THE TREATMENT OF INFECTIOUS DISEASES OR CANCER BY ACTIVATING NLRP3 INFLAMMASOME” (ALBERT-LUDWIGS-UNIVERSITÄT FREIBURG, priority 2020, published 2024)", "key": {"NLRP3 inflammasome": {"molecular_target": "T1, NLRP3 inflammasome (Mus musculus, UniProt Q8R4B8)", "T1 construct": "endogenous in cells; host or cells: primary mouse bone marrow-derived dendritic cells (BMDCs), LPS-primed", "T1 sequence (Q8R4B8 whole entry)": "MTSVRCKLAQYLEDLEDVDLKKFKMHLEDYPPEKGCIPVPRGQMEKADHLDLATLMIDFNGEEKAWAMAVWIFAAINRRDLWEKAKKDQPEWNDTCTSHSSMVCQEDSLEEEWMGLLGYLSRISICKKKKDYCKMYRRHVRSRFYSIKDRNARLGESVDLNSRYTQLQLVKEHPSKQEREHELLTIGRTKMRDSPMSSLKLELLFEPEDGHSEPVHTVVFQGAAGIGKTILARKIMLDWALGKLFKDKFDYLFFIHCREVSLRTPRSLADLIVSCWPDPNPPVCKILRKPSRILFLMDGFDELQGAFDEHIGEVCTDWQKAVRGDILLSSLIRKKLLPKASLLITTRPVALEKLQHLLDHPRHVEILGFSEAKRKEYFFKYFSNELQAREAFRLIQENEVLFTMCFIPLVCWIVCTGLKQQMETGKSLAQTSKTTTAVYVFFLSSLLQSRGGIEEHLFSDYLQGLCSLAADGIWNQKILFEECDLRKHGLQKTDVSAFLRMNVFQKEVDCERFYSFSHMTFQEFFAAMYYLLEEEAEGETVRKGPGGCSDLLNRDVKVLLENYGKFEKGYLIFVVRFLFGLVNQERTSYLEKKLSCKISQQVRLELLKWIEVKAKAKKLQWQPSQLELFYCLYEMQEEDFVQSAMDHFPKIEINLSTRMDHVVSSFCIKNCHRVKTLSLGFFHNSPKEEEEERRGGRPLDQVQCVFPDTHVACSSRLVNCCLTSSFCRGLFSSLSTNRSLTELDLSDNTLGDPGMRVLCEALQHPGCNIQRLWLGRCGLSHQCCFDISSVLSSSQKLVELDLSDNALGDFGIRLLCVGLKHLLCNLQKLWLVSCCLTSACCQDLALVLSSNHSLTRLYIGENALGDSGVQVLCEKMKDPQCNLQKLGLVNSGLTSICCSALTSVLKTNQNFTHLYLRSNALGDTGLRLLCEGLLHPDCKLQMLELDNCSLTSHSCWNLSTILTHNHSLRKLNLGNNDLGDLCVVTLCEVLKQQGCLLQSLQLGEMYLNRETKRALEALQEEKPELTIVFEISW", "test": "IL-1β release from LPS-primed BMDCs (ELISA) as readout of NLRP3 inflammasome activation", "format": "cell-based", "summary_of_the_method": "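NLRP3 inflammasome activation was read out as IL-1β released into the supernatant, measured by ELISA. Murine BMDCs were primed with LPS (50 ng ml^−1, 3 hours), then incubated with compounds for 3 hours, with each condition run in three technical replicates. Nigericin at 5 μM acted as the positive control activator, and IL-1β release was also expressed as a percentage of that control.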"}, "BMDCs": {"system": "BMDCs", "test": "LDH release (lytic cell death, pyroptosis) from LPS-primed BMDCs", "format": "cell-based, mouse", "settings": "for Average (% positive control): LDH release; for cytotoxicity at 10 µM / cytotoxicity at 20 µM / cytotoxicity at 25 µM / cytotoxicity at 50 µM / cytotoxicity at 18.75 µM: Mus musculus, BMDC; for cytotoxicity at 50 µM: LPS-primed BMDCs", "summary_of_the_method": "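LDH released into medium, detected colorimetrically, served as the pyroptosis read-out in triplicate. LPS-primed (50 ng ml^−1, 3 h) murine bone marrow-derived dendritic cells received test compounds, typically 50 μM, or nigericin (5 μM), R837 or CL097 (100 μM) for 3 hours.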"}, "NLRP3": {"system": "NLRP3", "test": "Inflammasome stimulation (IL-1β, LDH release) in BMDCs from NLRP3 knockout or ASC knockout mice", "format": "cell-based, mouse", "settings": "IL-1β and LDH release", "method": "For canonical inflammasome activation BMDCs after 7-9 days of differentiation were harvested and counted with a Neubauer Chamber (Hecht Assistant) and the concentration was set to 1 Mio cells ml^−1. 100 μl cell suspension per well were seeded in 96-well plates. The cells were primed with 50 ng ml^−1 E. coli K12 ultra-pure LPS for 3 hours and subsequently treated with canonical inflammasome activators or experimental compounds for 3 hours if not indicated differently (incubation time FIG. 4D, 5, 7, 8, 11, 13-18: 3 h, FIG. 12: 4 h). Concentrations of the stimuli were as follows if not indicated differently: 5 μM nigericin, 100 μM imiquimod (also known as R837), 100 μM CL097, 100 μM R848, […] poly(dA:dT), 300 μg ml^−1 MSU. If an inhibitor was used before stimuli treatment, the inhibitor was added after 2.5 hours of priming and it was incubated for 30 minutes before inflammasome activation. Inhibitors were used as follows: 3 μM MCC950, 45 mM KCl, 30 μM ebselen (2-Phenyl-1,2-benzoselenazol-3-one), 5 μM cytochalasin D (see FIGS. 8, 11, 12 and 17).\nAll inflammasome stimulations were performed in three technical replicates for each condition. Lytic cell death was determined via LDH release (see FIGS. 8, 13-16 and 18), cytokines quantified in cell-free supernatants via ELISA (see FIGS. 4D, 7-9, 11-19) and cell lysates and supernatants analyzed via immunoblotting (see FIGS. 5A and 5B) as previously described in detail (Gross, Olaf, 2012 “Measuring the inflammasome”, Methods in molecular biology, Clifton, N.J., 844, pp. 199-222. Schneider, Katharina S.; Thomas, Christina J.; Groß, Olaf, 2013, “Inflammasome activation and inhibition in primary murine bone marrow-derived cells, and assays for IL-1α, IL-1β, and caspase-1”, Methods in molecular biology, Clifton, N.J., 1040, pp. 117-135)."}}, "note": "Values joined by “and” are separate entries in the source; they are usually repeats but may differ in a detail not shown here. Equal entries are not always repeated. Where two headings read alike, the source gives them in different places."}
{"smiles": "O=C(Nc1ccccc1)Nc1ccc2ncccc2c1", "note": "[EN22, 1-phenyl-3-(quinolin-6-yl)urea]", "values": [{"measurement": "Average IL-1β", "setting": "NLRP3 inflammasome; 10 μM", "result": 10.000, "unit": "ng/mL"}, {"measurement": "IL-1β", "setting": "NLRP3 inflammasome; 10 μM, individual replicate values", "result": 10.000, "unit": "ng/mL"}, {"measurement": "Average IL-1β", "setting": "NLRP3 inflammasome; 18.75 μM", "result": 6.322, "unit": "ng/mL"}, {"measurement": "IL-1β", "setting": "NLRP3 inflammasome; 18.75 μM, individual replicate values", "result": "7.071 ng/mL and 5.864 ng/mL and 6.030 ng/mL"}, {"measurement": "Average IL-1β", "setting": "NLRP3 inflammasome; 25 μM, EN11 series table", "result": 1.474, "unit": "ng/mL"}, {"measurement": "IL-1β", "setting": "NLRP3 inflammasome; 25 μM, individual replicate values, EN11 series table", "result": "1.387 ng/mL and 1.391 ng/mL and 1.646 ng/mL"}, {"measurement": "time after which inflammasome activation is almost maximum", "setting": "NLRP3 inflammasome; BMDCs from wild-type mice without inhibitor", "result": 30, "unit": "min"}, {"measurement": "EC50 for induction of IL-1β, times lower than for imiquimod and CL097", "setting": "NLRP3 inflammasome; BMDCs, FIG. 4D", "result": 10, "unit": "times"}, {"measurement": "Average (% positive control)", "setting": "NLRP3 inflammasome; IL-1β release, compound 50 μM, positive control nigericin 5 μM", "result": 128.957, "unit": "% positive control"}, {"measurement": "Average (% positive control)", "setting": "NLRP3 inflammasome; IL-1β, 10 μM, positive control EN22 10 μM", "result": 100.000, "unit": "% positive control"}, {"measurement": "Average (% positive control)", "setting": "NLRP3 inflammasome; IL-1β, 18.75 μM, positive control EN22 18.75 μM", "result": 100.000, "unit": "% positive control"}, {"measurement": "Average (% positive control)", "setting": "NLRP3 inflammasome; IL-1β, 25 μM, positive control EN22 25 μM", "result": 100.000, "unit": "% positive control"}, {"measurement": "Average (% positive control)", "setting": "NLRP3 inflammasome; IL-1β, concentration not given, positive control EN22", "result": 100.000, "unit": "% positive control"}, {"measurement": "Average IL-1β", "setting": "NLRP3 inflammasome; compound 50 μM, LPS-primed BMDCs", "result": 9.244, "unit": "ng/mL"}, {"measurement": "Average IL-1β", "setting": "NLRP3 inflammasome; concentration not given, JB series table", "result": 1.957, "unit": "ng/mL"}, {"measurement": "IL-1β", "setting": "NLRP3 inflammasome; concentration not given, individual replicate values, JB series table", "result": "1.632 ng/mL and 2.095 ng/mL and 2.146 ng/mL"}, {"measurement": "Average IL-1β", "setting": "NLRP3 inflammasome; section 1.2, 25 μM", "result": 5.026, "unit": "ng/mL"}, {"measurement": "Average (% positive control)", "setting": "NLRP3 inflammasome; section 1.2, IL-1β release, 25 μM, positive control EN22 25 μM", "result": 100.000, "unit": "% positive control"}, {"measurement": "IL-1β", "setting": "NLRP3 inflammasome; section 1.2, single replicates, 25 μM", "result": "4.821 ng/mL and 5.196 ng/mL and 5.062 ng/mL"}, {"measurement": "IL-1β", "setting": "NLRP3 inflammasome; single replicates, compound 50 μM, LPS-primed BMDCs", "result": "8.679 ng/mL and 9.014 ng/mL and 9.589 ng/mL and 8.363 ng/mL and 10.000 ng/mL and 9.819 ng/mL"}, {"measurement": "Average (% positive control)", "setting": "BMDCs; 10 μM, positive control EN22 10 μM", "result": 100.000, "unit": "% positive control"}, {"measurement": "Average (% positive control)", "setting": "BMDCs; 20 μM, positive control EN22 20 μM", "result": 100.000, "unit": "% positive control"}, {"measurement": "Average (% positive control)", "setting": "BMDCs; 25 μM, positive control EN22 25 μM", "result": 100.000, "unit": "% positive control"}, {"measurement": "Average (% positive control)", "setting": "BMDCs; compound 50 μM, positive control nigericin 5 μM", "result": 95.180, "unit": "% positive control"}, {"measurement": "cytotoxicity at 10 µM", "setting": "BMDCs; 10 μM, individual replicate values, read-out: LDH release (% of max.)", "result": 78.1, "unit": "%"}, {"measurement": "cytotoxicity at 10 µM", "setting": "BMDCs; 10 μM, read-out: Average LDH release (% of max.)", "result": 76.8, "unit": "%"}, {"measurement": "cytotoxicity at 20 µM", "setting": "BMDCs; 20 μM, individual replicate values, read-out: LDH release (% of max.)", "result": 49.4, "unit": "%"}, {"measurement": "cytotoxicity at 20 µM", "setting": "BMDCs; 20 μM, read-out: Average LDH release (% of max.)", "result": 53.3, "unit": "%"}, {"measurement": "cytotoxicity at 25 µM", "setting": "BMDCs; 25 μM, EN11 series table, read-out: Average LDH release (% of max.)", "result": 50.8, "unit": "%"}, {"measurement": "cytotoxicity at 25 µM", "setting": "BMDCs; 25 μM, individual replicate values, EN11 series table, read-out: LDH release (% of max.)", "result": 51.9, "unit": "%"}, {"measurement": "cytotoxicity at 50 µM", "setting": "BMDCs; compound 50 μM, read-out: Average LDH release (% of max.)", "result": 69.6, "unit": "%"}, {"measurement": "cytotoxicity at 25 µM", "setting": "BMDCs; section 1.2, 25 μM, read-out: Average LDH release (% of max.)", "result": 30, "unit": "%"}, {"measurement": "cytotoxicity at 25 µM", "setting": "BMDCs; section 1.2, single replicates, 25 μM, read-out: LDH release (% of max.)", "result": 29.6, "unit": "%"}, {"measurement": "cytotoxicity at 18.75 µM", "setting": "BMDCs; section 1.4, 18.75 μM, read-out: Average LDH release (% of max.)", "result": 71.3, "unit": "%"}, {"measurement": "cytotoxicity at 18.75 µM", "setting": "BMDCs; section 1.4, single replicates, 18.75 μM, read-out: LDH release (% of max.)", "result": 71.4, "unit": "%"}, {"measurement": "cytotoxicity at 50 µM", "setting": "BMDCs; single replicates, compound 50 μM, read-out: LDH release (% of max.)", "result": 59.4, "unit": "%"}, {"measurement": "Average (% positive control)", "setting": "BMDCs; section 1.2, 25 μM, positive control EN22 25 μM", "result": 100.000, "unit": "% positive control"}, {"measurement": "Average (% positive control)", "setting": "BMDCs; section 1.4, 18.75 μM, positive control EN22 18.75 μM", "result": 100.000, "unit": "% positive control"}, {"measurement": "characteristics of inflammasome activation in cells isolated from NLRP3 knockout mice", "setting": "NLRP3", "result": "do not occur"}]}
